Reference: the supplement of paper PMC10290057

Legend:
HCT116 [1] = test: AC50 cell viability (CellTiter-Glo); higher = less potent; details: 48 h
HCT116 [2] = test: efficacy (fitted maximal change in viability relative to DMSO control); higher = less cytotoxic (negative = loss of viability); details: 48 h
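Wherever AC50 cell viability (CellTiter-Glo) is given: HCT116 colorectal carcinoma cells screened at five concentrations per compound, luminescent viability scaled between DMSO wells and empty wells on each plate, curves fitted per compound.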
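Wherever efficacy (fitted maximal change in viability relative to DMSO control) is given: Luminescence-based viability readout, five doses per compound, normalized against on-plate DMSO and empty-well controls, followed by dose-response curve fitting for every drug.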

Row | Compound | AC50 cell viability (HCT116 [1]) | efficacy (HCT116 [2])
1 | c1ccc2c(-c3cnn4cc(-c5ccc(OCCN6CCOCC6)cc5)cnc34)ccnc2c1 | 6.45 µM | -84.3%
2 | c1cc(N[C@@H]2CCNC2)nc(-c2cnc3ccc(-c4cn[nH]c4)cn23)c1 | 7.42 µM | -59.7%
3 | CC(=O)NCC(=O)N1[C@@H]2CC[C@H]1c1ccc(Nc3ncc(C(F)(F)F)c(NC4CCC4)n3)cc12 | 1.48 µM | -73.5%
4 | CC(C)(C)C[C@H]1N[C@@H](C(=O)N[C@H]2CC[C@H](O)CC2)[C@H](c2cccc(Cl)c2F)[C@@]12C(=O)Nc1cc(Cl)ccc12 | 4.17 µM | -91.1%
5 | CC(C)c1ccc(Cn2ccc3c4c(N)nc(NC5CC5)nc4ccc32)cc1 | 0.332 µM | -102%
6 | CC(C)c1noc(N2CCC(COc3ccc(-c4ccc([S+](C)(=O)[O-])cc4)nc3)CC2)n1 | 3.72 µM | -32.3%
7 | Cc1ccc(C(N)=O)cc1Nc1nccc(-c2cn(C(C)C)c3cnccc23)n1 | 2.09 µM | -69.4%
8 | Cc1c(C(=O)Nc2cccc(C(F)(F)F)c2)cc(-c2ccccc2)n1CCCN1CCOCC1 | 20.9 µM | -75.8%
9 | Cc1cc(I)ccc1Nc1c(C(=O)NOCC2CC2)cc(F)c(F)c1F | 4.68 µM | -95.1%
10 | Cc1cccc(Nc2nc(N[C@@H]3CCCC[C@@H]3N)ncc2C(N)=O)c1 | 7.42 µM | -94.8%
11 | Cc1ccc([S+](=O)([O-])Nc2cc(Cl)ccc2C(=O)Nc2nc(-c3ccccc3)cs2)cc1 | 2.63 µM | -82.5%
12 | Cc1ccc(NC(=O)c2ccc3c(c2)OCCO3)cc1NC(=O)c1ccc2nc(OCCN3CCCC3)ccc2c1 | 0.0407 µM | -69.9%
13 | Cc1cccc(Nc2nc(-c3ccncc3)cs2)c1 | 18.6 µM | -69.9%
14 | Cc1n[nH]c2ccc(-c3cncc(OC[C@@H](N)Cc4c[nH]c5ccccc45)c3)cc12 | 0.417 µM | -80.2%
15 | CCc1cccc(CC)c1NC(=O)N1Cc2[nH]nc(NC(=O)c3ccc(N4CCN(C)CC4)cc3)c2C1 | 11.8 µM | -88.9%
16 | CCCC(CCC)C(=O)NC/1=N/C(=O)N(/C=C1)[C@@H]2O[C@H](CO)[C@@H](O)C2(F)F | 2.63 µM | -48.1%
17 | CCCCOc1c(C(=O)c2c(F)cc(C)cc2F)cnc2[nH]ncc12 | 1.32 µM | -75.8%
18 | CCN(CC)CCOC1=CC=C(NC2=NC=C3\C=C(/C(=O)N(C)C3=N2)C4=C(Cl)C=CC=C4Cl)C=C1 | 1.18 µM | -86.9%
19 | CCNC(=O)c1cc2c(-c3cc(OCCN4CCCC4)c(Cl)cc3Cl)nc(N)nc2s1 | 0.456 µM | -57.9%
20 | CN(C)CC(=O)N1CCC(CC1)C2=CC=C(NC(=O)C3=NC(=C[NH]3)C#N)C(=C2)\C4=C\CCCC4 | 16.6 µM | -80.1%
21 | CN(C)Cc1cccc(N/C(=C2\C(=O)Nc3cc(C(=O)N(C)C)ccc32)c2ccccc2)c1 | 13.2 µM | -69.8%
22 | CN(C)CCCN\C1=C\2C(=O)N(C)C(=O)\N=C2N(C)C3=C1C=CC=C3 | 5.25 µM | -67.5%

Row | Compound | AC50 cell viability (HCT116 [1]) | efficacy (HCT116 [2])
23 | CN(C)CCOc1ccc(-c2nc(-c3ccncc3)c(-c3ccc4c(c3)CC/C4=N\O)[nH]2)cc1 | 11.8 µM | -134%
24 | Cc1nn(Cc2ccccc2Cl)c(C)c1CN(C)CC(O)COc1ccc(Cl)cc1 (stereo not given) | 18.6 µM | -92.3%
25 | CN1CCN(c2cccc(Nc3nc4c(-c5ccc([S+](C)(=O)[O-])cc5)cccn4n3)c2)CC1 | 16.6 µM | -121%
26 | CNC(=O)c1ccccc1Nc1nc(Nc2ccc3c(c2OC)CCC[C@@H](N2CCN(CCO)CC2)C3)ncc1Cl | 4.17 µM | -110%
27 | CNC(=O)Cn1cc(-c2ccc3c(c2)C(F)CC32NC(=O)N(CC(=O)N(Cc3ccc(F)cc3)C(C)C(F)(F)F)C2=O)cn1 (stereo not given) | 0.934 µM | -51.2%
28 | CNC(=O)Cn1cc(-c2ccc3c(c2)C(F)CC32NC(=O)N(CC(=O)N(Cc3ccc(F)cc3)[C@@H](C)C(F)(F)F)C2=O)cn1 (stereo not given in full) | 0.742 µM | -47.8%
29 | CNc1nc(-c2ccc3c(N)n[nH]c3c2)cc(N2C[C@@H](C(=O)NC3CCCCC3)CC[C@H]2C)n1 | 18.6 µM | -110%
30 | COc1cc(C)c(Sc2cnc(NC(=O)c3ccc(CNC(C)C(C)(C)C)cc3)s2)cc1C(=O)N1CCN(C(C)=O)CC1 (stereo not given) | 11.8 µM | -110%
31 | COC1=C(NC2=NC=C(Cl)C(=N2)N[C@@H]3[C@H]\4C[C@@H](\C=C4)[C@H]3C(N)=O)C=CC5=C1CCC(CC5)N6CCOCC6 (stereo not given in full) | 4.17 µM | -74.2%
32 | COc1cc(-c2cc(-c3ccc(N4CCNCC4)cc3)cnc2C)cc(OC)c1OC | 9.34 µM | -57.2%
33 | COc1cc2ncnc(-n3nc(-c4ccccn4)nc3N)c2cc1OC | 4.68 µM | -47.9%
34 | COc1cc2nc(-c3ccc(N4CCN(C)CC4)cc3)nc(NCCN3CCOCC3)c2cc1OC | 2.95 µM | -87.2%
35 | COc1cc2nc(N3CCCN(C)CC3)nc(NC3CCN(Cc4ccccc4)CC3)c2cc1OC | 6.61 µM | -95.2%
36 | COc1cc(N2CCC(N(C)C)CC2)ccc1Nc1ncc(Cl)c(Nc2ccccc2P(C)(C)=O)n1 | 0.742 µM | -87.7%
37 | COc1cc(C(=O)NC2CCN(C)CC2)ccc1Nc1ncc2c(n1)N(C1CCCC1)CCC(=O)N2C(C)C | 14.8 µM | -107%
38 | COc1cc2nc(-c3cc(F)ccc3O)nc(N[C@@H]3CNC[C@H]3C(C)(C)O)c2cc1OC | 3.72 µM | -87.7%
39 | COc1ccc(-c2cc3c(C)nc(N)nc3n([C@H]3CC[C@H](OCCO)CC3)c2=O)cn1 | 0.332 µM | -71.8%
40 | COc1ccc(CCN(C)CCCOc2ccc([S+](=O)([O-])c3c(C(C)C)c4ccccc4n3C)cc2)cc1OC | 8.33 µM | -91.8%
41 | COc1ccc(Cl)c(Nc2ncnc3cc(OCC4CCN(C)CC4)c(OC)cc23)c1 | 23.5 µM | -93.6%
42 | COc1ccc2nc3[nH]nc(C)c3c(NCCOCCO)c2c1 | 18.6 µM | -82.9%
43 | COCC(=O)NC/C=C/c1ccc2ncnc(Nc3ccc(Oc4ccc(C)nc4)c(C)c3)c2c1 | 20.9 µM | -64.8%
44 | COCCOc1ccc2c(c1)ncn2-c1ccc2cccc(N3CCC(N)CC3)c2n1 | 2.95 µM | -85.5%

Row | Compound | AC50 cell viability (HCT116 [1]) | efficacy (HCT116 [2])
45 | Cc1nc([C@](C)(O)CO)sc1-c1cnc(N)c(O[C@H](C)c2cc(F)ccc2-n2nccn2)c1 | 3.72 µM | -57.7%
46 | Cc1ccc(-c2ccc3c(ccc4sc5c(c43)NC[C@@H](C)NC5=O)n2)cn1 | 20.9 µM | -96.2%
47 | CC(=O)N1c2ccc(-c3ccc(C(=O)O)cc3)cc2[C@H](Nc2ccc(Cl)cc2)C[C@@H]1C | 0.833 µM | -90.5%
48 | C[C@@]1(c2ncncc2F)NC(=O)c2cc(-c3cn[nH]c3)ccc21 | 14.8 µM | -101%
49 | C[N]1C=C(C=N1)C2=C3\C=N/NC(=O)C4=C3C(=CC(=C4)NC(=O)[C@H](N)C5CCCCC5)[NH]2 | 16.6 µM | -67.8%
50 | C[S+](=O)([O-])N1CCc2c(-c3cnc(N)nc3)nc(N3CCOCC3)nc21 | 0.661 µM | -56.8%
51 | C/N=c1\ncc2cc(-c3cc(N/C(O)=N/CCC(C)(C)C)c(F)cc3C)c(C)nc2[nH]1 | 2.63 µM | -82.1%
52 | O=C(N[C@@H](c1ccccc1)[C@@H]1CCCCN1)c1cccc(C(F)(F)F)c1Cl | 20.9 µM | -108%
53 | O=C(Nc1ccccc1Br)N[C@@H]1CCN(c2ccc(C(F)(F)F)cn2)C1 | 16.6 µM | -39.8%
54 | Fc1ccc(-c2csc3ncnc(NCc4ccc5c(c4)OCO5)c23)cc1 | 8.33 µM | -57.3%
55 | Nc1ncnc(Nc2ccc(OCc3ccccc3)c(Cl)c2)c1/C=N/OCCN1CCOCC1 | 26.3 µM | -98%
56 | Nc1ncnc2c1c(COc1cccc(Cl)c1)nn2C1CCOCC1 | 18.6 µM | -37.2%
57 | NC\1=N\C(=O)N(\C=C1F)[C@H]2C[C@H](O)[C@@H](CO)O2 | 0.105 µM | -64%
58 | N[S+](=O)([O-])c1ccc(Cc2c(-c3cccc(-c4ccccc4)c3)nn(-c3nc(C(=O)O)cs3)c2CC2CC2)cc1 | 14.8 µM | -43.2%
59 | O=C(NCCCNc1nc(Nc2cccc(CN3CCOCC3)c2)ncc1C1CC1)C1CCC1 | 16.6 µM | -96.5%
60 | O=C(O)c1ccc(O)c2ncc(N3CCOCC3)cc12 | 23.5 µM | -43%
61 | O=C(NCC(=O)N1CC[C@H](NC2CCC(O)(c3ccc(-c4ncccn4)cn3)CC2)C1)c1cccc(C(F)(F)F)c1 (stereo not given in full) | 5.9 µM | -47%
62 | Oc1cc(-c2nc(-c3ccccc3)[nH]c2-c2ccncc2)ccc1Cl | 4.17 µM | -90.3%
63 | O=C(CC12CC3CC(CC(C3)C1)C2)Nc1cccc2nc(NCCNCCO)ccc12 | 26.3 µM | -101%
64 | O=C1CSC(=O)N1C(CCc1ccncc1)COc1ccc(-c2cccc([N+](=O)[O-])c2)cc1 (stereo not given) | 2.63 µM | -32.9%
65 | O=C(Nc1ncc(SCCN2CCCC2)s1)[C@]1(c2ccc([S+](=O)([O-])C3CC3)cc2)C[C@H]1C1CCCCC1 | 18.6 µM | -95.8%
